According to doi:10.1101/2024.07.14.603434v1 (biorxiv, 2024):

Legend:
[1] = target: T1, NagA (Streptomyces coelicolor, UniProt Q9KXV7); assay: decrease of amide absorbance at […] nm; format: biochemical; settings: phosphate buffer pH 7.4, 30 °C
T1 sequence (Q9KXV7 1-381): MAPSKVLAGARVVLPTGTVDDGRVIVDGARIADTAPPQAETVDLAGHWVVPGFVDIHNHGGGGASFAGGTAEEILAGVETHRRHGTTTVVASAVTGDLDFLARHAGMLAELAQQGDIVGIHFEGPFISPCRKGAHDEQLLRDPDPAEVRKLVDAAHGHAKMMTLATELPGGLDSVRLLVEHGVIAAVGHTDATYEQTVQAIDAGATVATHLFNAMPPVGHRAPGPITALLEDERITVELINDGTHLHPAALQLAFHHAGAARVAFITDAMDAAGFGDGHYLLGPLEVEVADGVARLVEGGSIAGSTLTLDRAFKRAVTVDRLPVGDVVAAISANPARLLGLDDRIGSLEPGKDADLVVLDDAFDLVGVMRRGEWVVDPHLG

[2] = target: T2, NagS (Streptomyces coelicolor, UniProt Q9K3V1); assay: UV absorbance of product at […] nm; format: biochemical; settings: 100 mM phosphate, 100 mM NaCl, pH 7.4 buffer stock; 30 °C
T2 sequence (Q9K3V1 1-251): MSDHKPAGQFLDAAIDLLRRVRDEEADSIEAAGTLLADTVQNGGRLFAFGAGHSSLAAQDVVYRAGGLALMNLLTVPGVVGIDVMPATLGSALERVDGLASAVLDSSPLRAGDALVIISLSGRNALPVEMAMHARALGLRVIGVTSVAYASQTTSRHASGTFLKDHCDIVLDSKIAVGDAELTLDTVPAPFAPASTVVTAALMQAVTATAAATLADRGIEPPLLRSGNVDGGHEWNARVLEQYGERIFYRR

Compound	Km [1] [µM]	Km [2] [µM]
CC(=O)N[C@H]1C(O)O[C@H](COP(=O)(O)O)[C@@H](O)[C@@H]1O (some centres unmarked) [GlcNAc-6P]	1590 ± 210	450 ± 30
CC(=O)N[C@H]1C(O)O[C@H](COP(=O)(O)O)[C@H](O)[C@@H]1O (some centres unmarked) [GalNAc-6P]	2840 ± 410	–
CC(=O)N[C@@H]1C(O)O[C@H](COP(=O)(O)O)[C@@H](O)[C@@H]1O (some centres unmarked) [ManNAc-6P]	2400 ± 440	680 ± 50
